Experimental data from article PMC9697135 (International Journal of Molecular Sciences, 2022).
Where two headings read alike, the source gives them in different places.

Legend:
[1] = test system: WNV; assay: Antiviral activity, virus yield by plaque assay (WNV); format: cell-based; conditions: West Nile virus, MOI 1 PFU/cell, virus yield at 24 h post-infection
[2] = test system: ZIKV; assay: Antiviral activity, virus yield by plaque assay (ZIKV); format: cell-based; conditions: Zika virus, 24 h, read-out: EC50 ZIKV
[3] = in vitro; conditions: African green monkey
[4] = in vitro; conditions: human
[5] = biological target: human nSMase2; conditions: cited from earlier work; for IC50: nSMase2 inhibition

SMILES: COc1cc(-c2nc(-c3cccs3)c(-c3ccccc3)[nH]2)cc(OC)c1O [DPTIP]
- EC50 ([1]; HeLa cells): 2810 nM
- EC50 ([1]; Vero cells): 260 nM
- EC50 ([2]; HeLa): 1840 nM
- EC50 ([2]; Vero): 1560 nM
- CC50 [3]: 54800 nM
- CC50 [4]: 15100 nM

SMILES: COc1cc(O)c(C(=O)O)c(-c2cc(O)c(O)cc2C)c1 [Altenusin]
- Ki ([5]; non-competitive inhibitor of human nSMase2): 20000 nM

SMILES: CC(C)(C)Oc1cc(-c2nc(-c3cccs3)c(-c3ccccc3)[nH]2)cc(OC(C)(C)C)c1O [compound 11]
- IC50 ([5]; SAR of DPTIP derivatives): 520 nM

SMILES: COc1cc(-c2nc(-c3cccs3)c(-c3ccccc3)n2C)cc(OC)c1O [compound 9]
- IC50 ([5]; SAR of DPTIP derivatives): 40000 nM

SMILES: COc1cc(-c2nc(-c3cccs3)c(-c3ccccc3)[nH]2)cc(OC)c1OC [compound 8]
- nSMase2 inhibitory activity (in words) ([5]; SAR of DPTIP derivatives): completely inactive
- IC50 ([5]; SAR of DPTIP derivatives): > 100000 nM

SMILES: Oc1c(OC2CCCC2)cc(-c2nc(-c3cccs3)c(-c3ccccc3)[nH]2)cc1OC1CCCC1 [compound 10]
- IC50 ([5]; SAR of DPTIP derivatives): 120 nM
